This passage reports IC50 results from US12577228B2, “Dihydrocyclopenta-isoquinoline-sulfonamide derivatives compounds” (UCB Biopharma SRL, priority 2019, dated 2026).

The assay addresses T1, IgE-Tb / soluble IgE receptor FcεRIα with a Y131A mutation (Homo sapiens, UniProt P01854, N146Q/N252Q).
T1 construct: fused on or other part: Terbium chelate (LanthaScreen amine-reactive) on IgE-Fc; Alexa Fluor 488 hydrazide on the oxidised glycans of sFcεRIα; Both are labels and no part of the key
The assay can be described thus: in vitro FRET assay: binding of IgE-Tb to receptor FcεRIα-Y131A-AF488 and its inhibition by compounds. The note with it: 5 nM IgE-Tb, 25 nM FcεRIα-Y131A-AF488, 2 hours at room temperature; read-out: FRET IC50 range.

SMILES strings stand for the structures.

T1 sequence (P01854 104-427 N146Q/N252Q): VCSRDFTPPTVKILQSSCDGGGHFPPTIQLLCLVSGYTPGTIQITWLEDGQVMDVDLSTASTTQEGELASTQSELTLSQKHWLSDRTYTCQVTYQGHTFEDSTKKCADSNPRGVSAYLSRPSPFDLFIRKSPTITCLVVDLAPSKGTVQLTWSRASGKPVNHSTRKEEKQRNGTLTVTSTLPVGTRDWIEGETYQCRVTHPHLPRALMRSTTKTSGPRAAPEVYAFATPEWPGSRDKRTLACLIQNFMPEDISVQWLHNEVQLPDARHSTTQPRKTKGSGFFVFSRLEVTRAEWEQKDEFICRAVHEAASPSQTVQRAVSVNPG
T1 sequence (P12319 26-201 Y156A partner): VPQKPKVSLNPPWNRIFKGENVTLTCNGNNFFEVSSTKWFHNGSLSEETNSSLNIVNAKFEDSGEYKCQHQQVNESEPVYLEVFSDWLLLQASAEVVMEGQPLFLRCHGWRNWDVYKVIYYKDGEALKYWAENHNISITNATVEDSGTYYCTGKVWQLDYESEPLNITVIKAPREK

One may read the IC50 as the concentration needed to halve the response being measured. On to `Cn1cc(C(=O)N[C@@H]2Cc3cc4cnc(C5CC5)cc4c(S(=O)(=O)NCC(C)(C)F)c3C2)c2ccccc21` [Example 132, N-[(7R)-3-cyclopropyl-5-[(2-fluoro-2-methylpropyl)sulfamoyl]-7,8-dihydro-6H-cyclopenta[g]isoquinolin-7-yl]-1-methylindole-3-carboxamide], for which the IC50 was in the range of 0.01 to 0.05 µM.
Next, `COc1ccc2c(C(=O)N[C@@H]3Cc4cc5cnc(C6CC6)cc5c(S(=O)(=O)NCC(C)(C)F)c4C3)c[nH]c2c1` [Example 133, N-[(7R)-3-cyclopropyl-5-[(2-fluoro-2-methylpropyl)sulfamoyl]-7,8-dihydro-6H-cyclopenta[g]isoquinolin-7-yl]-6-methoxy-1H-indole-3-carboxamide]: 0.01 to 0.05 µM.
Next, `Cc1ncsc1C(=O)N[C@@H]1Cc2cc3cnc(C4CC4)cc3c(S(=O)(=O)NCC(C)(C)F)c2C1` [Example 134, N-[(7R)-3-cyclopropyl-5-[(2-fluoro-2-methylpropyl)sulfamoyl]-7,8-dihydro-6H-cyclopenta[g]isoquinolin-7-yl]-4-methyl-1,3-thiazole-5-carboxamide]: 0.1 to 2 µM; `CC(C)(F)CNS(=O)(=O)c1c2c(cc3cnc(C4CC4)cc13)C[C@@H](NC(=O)c1nccc3ccccc13)C2` [Example 135, N-[(7R)-3-cyclopropyl-5-[(2-fluoro-2-methylpropyl)sulfamoyl]-7,8-dihydro-6H-cyclopenta[g]isoquinolin-7-yl]isoquinoline-1-carboxamide]: 0.1 to 2 µM; `CC(C)(F)CNS(=O)(=O)c1c2c(cc3cnc(C4CC4)cc13)C[C@@H](NC(=O)c1ccc3c(c1)CN(C(=O)OC(C)(C)C)C3)C2` [Example 136, tert-butyl 5-[[(7R)-3-cyclopropyl-5-[(2-fluoro-2-methylpropyl)sulfamoyl]-7,8-dihydro-6H-cyclopenta[g]isoquinolin-7-yl]carbamoyl]-1,3-dihydroisoindole-2-carboxylate]: 0.01 to 0.05 µM.
In the case of `Cn1cc(C(=O)C(=O)N[C@@H]2Cc3cc4cnc(C5CC5)cc4c(S(=O)(=O)NCC(C)(C)F)c3C2)cn1` [Example 137, N-[(7R)-3-cyclopropyl-5-[(2-fluoro-2-methylpropyl)sulfamoyl]-7,8-dihydro-6H-cyclopenta[g]isoquinolin-7-yl]-2-(1-methylpyrazol-4-yl)-2-oxoacetamide] it was 0.1 to 2 µM; in that of `CC(C)(F)CNS(=O)(=O)c1c2c(cc3cnc(C4CC4)cc13)C[C@@H](Nc1cnc(C(=O)O)c3ccccc13)C2` [Example 138, lithium; 4-[[(7R)-3-cyclopropyl-5-[(2-fluoro-2-methyl-propyl)sulfamoyl]-7,8-dihydro-6H-cyclopenta[g]isoquinolin-7-yl]amino]isoquinoline-1-carboxylate], 0.05 to 0.1 µM.
With `C[S+]([O-])c1ccc(NC2Cc3cc4cnc(C5CC5)cc4c(S(=O)(=O)NCC(C)(C)F)c3C2)cn1` (centres unmarked) [Example 139, 3-cyclopropyl-N-(2-fluoro-2-methylpropyl)-7-[(6-methylsulfinylpyridin-3-yl)amino]-7,8-dihydro-6H-cyclopenta[g]isoquinoline-5-sulfonamide], the IC50 was in the range of 0.01 to 0.05 µM.
In the case of `Cn1ncc(NC2Cc3cc4cnc(C5CC5)cc4c(S(=O)(=O)NCC(C)(C)F)c3C2)cc1=O` (centres unmarked) [Example 140, 3-cyclopropyl-N-(2-fluoro-2-methylpropyl)-7-[(1-methyl-6-oxopyridazin-4-yl)amino]-7,8-dihydro-6H-cyclopenta[g]isoquinoline-5-sulfonamide] it was 0.01 to 0.05 µM.
With `CC(C)(F)CNS(=O)(=O)c1c2c(cc3cnc(C4CC4)cc13)C[C@@H](NC(=O)c1n[nH]c3cc(Br)ccc13)C2` [Example 141, 6-bromo-N-[(7R)-3-cyclopropyl-5-[(2-fluoro-2-methylpropyl)sulfamoyl]-7,8-dihydro-6H-cyclopenta[g]isoquinolin-7-yl]-1H-indazole-3-carboxamide], the IC50 lay in the range of 0.1 to 2 µM.
In the case of `CC(C)(F)CNS(=O)(=O)c1c2c(cc3cnc(C4CC4)cc13)CC(NC1=CC(=O)OC1)C2` (centres unmarked) [Example 142, 3-cyclopropyl-N-(2-fluoro-2-methylpropyl)-7-[(5-oxo-2H-furan-3-yl)amino]-7,8-dihydro-6H-cyclopenta[g]isoquinoline-5-sulfonamide], the IC50 was in the range of 0.1 to 2 µM.
